Data on 12 compounds can be found in patent US8637674B2, “Pyrazole derivatives, preparation method thereof, and composition for prevention and treatment of osteoporosis containing same” (EWHA University-Industry Collaboration Foundation, priority 2009, dated 2014).

pEC50: −log10 of the molar value.

The assay has as its target reactive oxygen species generated in kidney membrane (NADPH oxidase). Nature of the assay: Inhibition of reactive oxygen species generation in kidney membrane (lucigenin-based assay). Format: biochemical, rat (Rattus norvegicus). The note with it: 37° C. for 10 minutes, luminescence, compounds at 40, 10, 2.5, 0.625, 0 μM. Here is the method: A kidney was isolated from a rat (Rattus norvegicus) and washed with phosphate buffered saline (PBS). The tissue was soaked in 20 mL of PBS buffer containing a protease inhibitor (Aprotinin 1 μg/mL-USB 11388, Leupeptin 1 μg/mL-USB-18413), finely disrupted using a mixer, and then transferred to a 50 mL conical tube (SPL 50050), followed by centrifugation at 10000 g for 10 minutes (MF-600 plus, Hanil) to sediment the undisrupted tissue. The supernatant was separated and collected in a fresh tube. The tube was placed in ice and subjected to sonication about 4 times each cycle for 30 seconds until the supernatant became clear (Branson Digital Sonifier, Model CE Converter 102C). The supernatant was transferred to a high-speed centrifugation tube (Beckman 331372) and then centrifuged at 100000 g for 1 hour (Optima™ L-90 K Preparative Ultracentrifuge, SW41Ti rotor, Beckman). After the supernatant was discarded, the remaining pellet was washed once with cold PBS and dissolved in 500 μL of cold PBS containing a protease inhibitor to obtain a murine kidney membrane.
Reactive oxygen species generated in the thus-obtained kidney membrane was analyzed by a lucigenin-based assay.
Specifically, each of the compounds synthesized in Examples of the present invention (40 μM, 10 μM, 2.5 μM, 0.625 μM, and 0 μM) was placed in a luminescence assay microplate, and the isolated kidney membrane and lucigenin were sequentially added thereto, followed by incubation at 37° C. for 10 minutes. Then, the intensity of luminescence was measured in a luminometer (MicroLumatPlus LB96V Microplate Luminometer, Berthold) to assay the generation of reactive oxygen species in the murine kidney membrane, followed by calculating an EC50 value of the inventive compounds.

Consider `Oc1cc(CCc2ccccc2)nn1-c1ccccn1` [Compound 3d, 3-phenethyl-1-(pyridin-2-yl)-1H-pyrazol-5-ol], for which the pEC50 is 5.00.

`Oc1cc(Cc2ccc(Cl)cc2)nn1-c1ccccn1` [Compound 3e, 3-(p-chlorobenzyl)-1-(pyridin-2-yl)-1H-pyrazol-5-ol] had a negative-log EC50 (pEC50) of 5.82.

With `Oc1cc(COc2ccccc2)nn1-c1ccccn1` [Compound 6a, 3-(phenoxymethyl)-1-(pyridin-2-yl)-1H-pyrazol-5-ol], the pEC50 is 5.12.

As to `Oc1cc(COc2ccc3ccccc3c2)nn1-c1ccccn1` [Compound 6b, 3-((naphthalen-3-yloxy)methyl)-1-(pyridin-2-yl)-1H-pyrazol-5-ol], the negative-log EC50 (pEC50) is 6.40.

`Oc1cc(COc2ccc(Cl)cc2Cl)nn1-c1ccccn1` [Compound 6d, 3-((2,4-dichlorophenoxy)methyl)-1-(pyridin-2-yl)-1H-pyrazol-5-ol] showed a negative-log EC50 (pEC50) of 5.74.

As to `Oc1cc(C=Cc2ccccc2)nn1-c1ccccn1` [Compound 9a, 1-(pyridin-2-yl)-3-styryl-1H-pyrazol-5-ol], the negative-log EC50 (pEC50) was 6.30.

As to `COc1ccc(C=Cc2cc(O)n(-c3ccccn3)n2)cc1` [Compound 9b, 3-(4-methoxystyryl)-1-(pyridin-2-yl)-1H-pyrazol-5-ol], the pEC50 was 6.30.

Regarding `COc1ccc(C=Cc2cc(O)n(-c3ccccn3)n2)cc1OC` [Compound 9c, 3-(3,4-dimethoxystyryl)-1-(pyridin-2-yl)-1H-pyrazol-5-ol], the negative logarithm of the EC50 (pEC50) was 6.22.

The compound `Oc1cc(C=Cc2ccc(Cl)c(Cl)c2)nn1-c1ccccn1` [Compound 9d, 3-(3,4-dichlorostyryl)-1-(pyridin-2-yl)-1H-pyrazol-5-ol] gave a pEC50 of 5.77.

`Oc1cc(C=Cc2ccc(C(F)(F)F)cc2)nn1-c1ccccn1` [Compound 9f, 3-(4-trifluoromethylstyryl)-1-(pyridin-2-yl)-1H-pyrazol-5-ol] gave a pEC50 of 6.30.

`CC(C)(C)[Si](C)(C)Oc1ccc(/C=C/c2cc(O)n(-c3ccccn3)n2)cc1` [Compound 9g] showed a pEC50 of 6.05.

`Oc1ccc(C=Cc2cc(O)n(-c3ccccn3)n2)cc1` [Compound 9k, 3-(4-hydroxystyryl)-1-(pyridin-2-yl)-1H-pyrazol-5-ol] gave a negative-log EC50 (pEC50) of 5.82.

A word on the pEC50: it is the negative decadic logarithm of the EC50, by convention in mol/L. Read a low pEC50 as a large EC50.
